In paper PMC7486275 (Nature, 2020):
Like-named read-outs stand apart in the source and are kept apart here. Peptide text beside a SMILES is read from it. * marks the point of attachment. Cbz = O=C(OCc1ccccc1)*

Legend:
[1] = molecular target: cycKeGFP in HEK293TCas9 cells (Homo sapiens, UniProt Q16531+Q9NYV4); format: cell-based
[2] = molecular target: CDK12-cycK complex by RBX1N8CUL4-DDB1 (Homo sapiens, UniProt Q16531+Q9NYV4, K965R); assay: In vitro ubiquitination assay; format: biochemical; details: 2 μM compound
HEK293TCas9 cells = details: 3 days
[3] = test system: CycK in HEK293TCas9 cells; assay: Immunoblots of CycK degradation; format: cell-based, human; details: pre-treated with 0.5 μM MLN7243, 1 μM MLN4924 or 10 μM MG132 for 4 hours, then 1 μM CR8 for 2 hours
[4] = test system: K562Cas9, OVK16Cas9, A564Cas9, ES2Cas9 and MOLM13Cas9 cell lines; assay: Validation of drug-E3 ligase pairs; format: cell-based; details: flow-based validation, 3 days
CDK12-cycK and DDB1 = CDK12-cycK and DDB1 (Homo sapiens, UniProt Q16531+Q9NYV4, K965R); assay: TR-FRET titration of CDK12-Alexa488cycK to terbiumDDB1; details: vs basal binding in DMSO
Chain of CDK12-cycK and DDB1 (Q9NYV4 713-1052 K965R): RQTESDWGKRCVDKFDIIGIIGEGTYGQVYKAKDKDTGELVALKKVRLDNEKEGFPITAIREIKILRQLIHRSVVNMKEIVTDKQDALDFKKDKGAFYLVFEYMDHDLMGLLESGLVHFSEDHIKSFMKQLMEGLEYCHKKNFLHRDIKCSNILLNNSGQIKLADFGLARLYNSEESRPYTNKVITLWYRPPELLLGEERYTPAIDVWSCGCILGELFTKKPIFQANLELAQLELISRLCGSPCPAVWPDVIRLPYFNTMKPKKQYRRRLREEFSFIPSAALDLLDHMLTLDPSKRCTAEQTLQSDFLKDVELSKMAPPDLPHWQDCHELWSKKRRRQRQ
Chain of CDK12-cycK and DDB1 (O75909 1-267, further chain): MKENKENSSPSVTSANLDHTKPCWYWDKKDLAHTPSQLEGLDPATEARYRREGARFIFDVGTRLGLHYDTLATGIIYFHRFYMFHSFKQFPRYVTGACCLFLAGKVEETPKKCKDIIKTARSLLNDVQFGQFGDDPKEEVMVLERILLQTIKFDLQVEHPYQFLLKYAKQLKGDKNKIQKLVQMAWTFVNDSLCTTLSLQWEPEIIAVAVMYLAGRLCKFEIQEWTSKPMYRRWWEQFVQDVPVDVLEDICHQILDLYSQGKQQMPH
Chain of CDK12-cycK and DDB1 (Q16531 whole entry): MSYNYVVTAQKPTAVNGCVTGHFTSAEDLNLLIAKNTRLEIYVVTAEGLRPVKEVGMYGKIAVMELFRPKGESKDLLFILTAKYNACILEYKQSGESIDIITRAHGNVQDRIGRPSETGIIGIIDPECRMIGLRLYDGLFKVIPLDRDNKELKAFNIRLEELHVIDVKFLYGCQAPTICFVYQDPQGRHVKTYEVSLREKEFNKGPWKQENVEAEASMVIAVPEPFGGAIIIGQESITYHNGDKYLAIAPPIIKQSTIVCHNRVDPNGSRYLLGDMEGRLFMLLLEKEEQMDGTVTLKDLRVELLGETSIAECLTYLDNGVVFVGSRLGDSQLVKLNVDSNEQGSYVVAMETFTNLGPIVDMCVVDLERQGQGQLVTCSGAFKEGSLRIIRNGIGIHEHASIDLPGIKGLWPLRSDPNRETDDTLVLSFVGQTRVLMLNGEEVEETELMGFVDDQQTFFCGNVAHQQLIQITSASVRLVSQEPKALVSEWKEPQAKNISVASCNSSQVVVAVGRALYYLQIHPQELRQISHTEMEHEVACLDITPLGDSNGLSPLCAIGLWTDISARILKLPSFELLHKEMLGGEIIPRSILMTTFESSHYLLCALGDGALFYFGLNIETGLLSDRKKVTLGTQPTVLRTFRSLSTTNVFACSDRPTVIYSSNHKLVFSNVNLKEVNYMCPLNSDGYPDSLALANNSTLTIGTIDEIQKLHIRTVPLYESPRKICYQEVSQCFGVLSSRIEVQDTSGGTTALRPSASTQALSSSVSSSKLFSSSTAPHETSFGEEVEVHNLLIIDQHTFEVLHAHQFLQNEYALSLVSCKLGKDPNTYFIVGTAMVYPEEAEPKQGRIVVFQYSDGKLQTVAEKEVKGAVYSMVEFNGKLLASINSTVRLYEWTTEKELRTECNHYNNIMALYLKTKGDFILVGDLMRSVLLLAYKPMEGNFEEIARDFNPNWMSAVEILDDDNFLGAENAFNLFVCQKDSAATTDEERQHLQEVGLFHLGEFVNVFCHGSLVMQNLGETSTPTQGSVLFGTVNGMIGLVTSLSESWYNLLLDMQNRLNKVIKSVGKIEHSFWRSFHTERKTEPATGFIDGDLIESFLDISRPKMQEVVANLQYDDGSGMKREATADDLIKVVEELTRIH

Chain of CDK12-cycK complex by RBX1N8CUL4-DDB1 (Q15843 1-76): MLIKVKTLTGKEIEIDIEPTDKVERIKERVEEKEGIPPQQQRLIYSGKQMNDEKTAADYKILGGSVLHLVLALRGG
Chain of CDK12-cycK complex by RBX1N8CUL4-DDB1 (Q16531 whole entry): as the sequence (Q16531 whole entry) above
Chain of CDK12-cycK complex by RBX1N8CUL4-DDB1 (Q9NYV4 713-1052 K965R): as the sequence (Q9NYV4 713-1052 K965R) above
Chain of CDK12-cycK complex by RBX1N8CUL4-DDB1 (P62877 whole entry, further chain): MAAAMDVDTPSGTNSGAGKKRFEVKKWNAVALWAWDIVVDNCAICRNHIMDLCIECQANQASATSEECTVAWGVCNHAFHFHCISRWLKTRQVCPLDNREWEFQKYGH
Chain of CDK12-cycK complex by RBX1N8CUL4-DDB1 (O75909 1-267, further chain): as the sequence (O75909 1-267, further chain) above
Chain of CDK12-cycK complex by RBX1N8CUL4-DDB1 (Q13619 whole entry, further chain): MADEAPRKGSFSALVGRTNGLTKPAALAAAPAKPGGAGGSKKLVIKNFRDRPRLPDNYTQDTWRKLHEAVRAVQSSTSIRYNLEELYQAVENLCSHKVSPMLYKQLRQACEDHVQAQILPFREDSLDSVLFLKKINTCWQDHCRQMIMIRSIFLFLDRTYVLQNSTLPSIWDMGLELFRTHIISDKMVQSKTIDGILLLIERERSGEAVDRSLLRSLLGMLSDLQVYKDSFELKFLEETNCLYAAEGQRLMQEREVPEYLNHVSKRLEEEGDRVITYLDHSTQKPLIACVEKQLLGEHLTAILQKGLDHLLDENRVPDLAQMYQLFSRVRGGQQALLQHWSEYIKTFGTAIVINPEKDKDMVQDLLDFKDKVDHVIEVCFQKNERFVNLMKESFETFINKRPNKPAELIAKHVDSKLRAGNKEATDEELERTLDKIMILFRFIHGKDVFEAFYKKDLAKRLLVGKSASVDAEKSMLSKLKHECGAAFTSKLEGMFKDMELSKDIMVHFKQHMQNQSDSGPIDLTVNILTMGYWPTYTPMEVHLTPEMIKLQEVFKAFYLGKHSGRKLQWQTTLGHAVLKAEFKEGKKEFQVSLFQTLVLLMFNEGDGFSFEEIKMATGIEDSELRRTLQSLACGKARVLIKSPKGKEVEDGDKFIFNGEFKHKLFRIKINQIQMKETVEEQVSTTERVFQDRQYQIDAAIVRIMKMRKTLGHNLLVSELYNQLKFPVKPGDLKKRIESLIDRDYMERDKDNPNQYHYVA

| SMILES | cycK ubiquitination in vitro [2] | rescue of CR8-induced cycK degradation [3] | effect on CDK12-cycK interaction with DDB1 (TR-FRET signal) (CDK12-cycK and DDB1) | also measured |
| --- | --- | --- | --- | --- |
| CC[C@H](CO)Nc1nc(NCc2ccccc2)c2ncn(C(C)C)c2n1 [Roscovitine] | less processive ubiquitination |  |  | degradation of the cycKeGFP reporter in cells [1]: neither DRF053 nor roscovitine induced degradation |
| NS(=O)(=O)OC[C@@H]1C[C@@H](n2ccc3c(N[C@H]4CCc5ccccc54)ncnc32)C[C@@H]1O [MLN4924] |  | rescued |  | effect on cell viability (HEK293TCas9 cells): only minor effects on cell viability |
| NS(=O)(=O)c1ccc(S(=O)(=O)Nc2cccc3c(Cl)c[nH]c23)cc1 [indisulam] |  |  |  | effect of sgRNAs targeting DCAF15 on drug-induced toxicity [4]: confer resistance |
| NS(=O)(=O)OC[C@H]1C[C@@H](Nc2ccnc3cc(-c4cccc(SC(F)(F)F)c4)nn23)[C@H](O)[C@@H]1O [MLN7243] |  | rescued |  |  |
| O=C(NS(=O)(=O)c1ccc(Br)s1)c1ccc(Cl)cc1Cl [tasisulam] |  |  |  | effect of sgRNAs targeting DCAF15 on drug-induced toxicity [4]: confer resistance |
| Nc1ncnc2c1ncn2[C@@H]1O[C@H](COP(=O)(O)OP(=O)(O)OP(=O)(O)O)[C@@H](O)[C@H]1O [ATP] |  |  | neither facilitated nor abrogated the interaction |  |
| CC(C)C[C@@H](C=O)NC(=O)[C@H](CC(C)C)NC(=O)[C@H](CC(C)C)NC(=O)OCc1ccccc1 [MG132] (Cbz-Leu-Leu-Leu-aldehyde) |  | rescued |  |  |
| CN1CC[C@H](c2c(O)cc(O)c3c(=O)cc(-c4ccccc4Cl)oc23)[C@H](O)C1 [Flavopiridol] | moderate cycK ubiquitination |  | stimulated the binding of CDK12-cycK to DDB1 | degradation of the cycKeGFP reporter in cells ([1]; HEK293TCas9 cells, 1 μM compound, 2 hours): failed to degrade cycK in cells |
| CN(C)C/C=C/C(=O)Nc1ccc(C(=O)N2CCC[C@@H](Nc3ncc(Cl)c(-c4c[nH]c5ccccc45)n3)C2)cc1 [THZ531] | diminished cycK ubiquitination in vitro below DMSO control levels |  | further decreased the TR-FRET signal |  |
